# Values joined by “and” are separate entries in the source; they are usually repeats but may differ in a detail not shown here. Identical values can stand only once. Like-named read-outs stand apart in the source and are kept apart here.
# How the values were obtained:
# [1] = tested on: plasma proteins, primarily serum albumin; parameters: method as in PMID 27121262, PMID 27196567; conditions: cited from earlier work
# [2] = Safety and tolerability (treatment-emergent adverse events) of ixazomib in patients with advanced solid tumors; assay type: in vivo, human
# Description: (§1) The primary objectives of the study were: (1) to assess the mass balance (i.e., cumulative excretion of TRA in urine and feces) of ixazomib following a single oral solution dose of 4.1 mg [^14C]-ixazomib containing approximately 500 nCi of TRA (specific activity of 125 nCi/mg); and (2) to characterize the PK of ixazomib in plasma and urine, and of TRA in plasma and whole blood, after a single oral solution dose of 4.1 mg [^14C]-ixazomib. The secondary objective was to assess the safety and tolerability of multiple-dose ixazomib administration in patients with advanced solid tumors or lymphoma.
# (§2) This study was conducted in two parts: a 35-day PK cycle (Part A), followed by repeated 28-day treatment cycles (Part B; Fig. 1). In Part A of the study, patients who met the inclusion and exclusion criteria were admitted to the study clinic on the morning of day 1 for the initial confinement period (days 1–8). Patients received a single 10 mL oral solution dose of 4.1 mg [^14C]-ixazomib containing approximately 500 nCi of TRA, followed by 3 × 10 mL water rinses of the dosing cup. Patients then drank approximately 200 mL of water. Patients returned to the clinic on days 14, 21, 28, and 35 for a 24 h overnight clinic visit. Non-radiolabeled doses of ixazomib (4 mg capsule) were administered on days 14 and 21. After completing their day 35 assessments in Part A, patients were permitted to continue into Part B of the study, where they received non-radiolabeled ixazomib (4 mg capsules) once weekly on days 1, 8, and 15 of each 28-day treatment cycle until disease progression or unacceptable toxicity. All doses of ixazomib were administered on an empty stomach, at least 1 h before or at least 2 h after food.
# [3] = Mass balance: recovery of TRA in urine and feces by accelerator mass spectrometry; assay type: in vivo, human; conditions: for Total recovery (%) of TRA in urine and feces: days 1–35
# Description: as §1, §2
# (§3) Plasma and whole blood samples were collected at the following time points after ixazomib administration on day 1 of Part A: 0 (predose), 0.5, 1, 2, 3, 4, 8, 24, 48, 72, 96, 120, 144, 168, 312 (day 14), 480 (day 21), 648 (day 28), and 816 (day 35) h post dose. Complete urinary and fecal output was collected continuously during the initial confinement period of Part A (days 1–8). Patients were discharged from the clinic on day 8 and returned on days 14, 21, 28, and 35 for a 24 h overnight visit. Urinary and fecal output was collected during each of these 24 h overnight clinic visits. Patients were also instructed to collect all feces at home for the 24 h period before each overnight clinic visit (days 13, 20, 27, and 34).
# To achieve enhanced analytical sensitivity, accelerator mass spectrometry (AMS) was used to determine TRA in urine, feces, whole blood, and plasma samples. […] At the testing facility (Accium BioSciences, Seattle, WA, USA), samples were assigned a unique tracking number, labeled, and stored at −70 °C until further analysis. Samples were subsequently removed from storage, thawed at room temperature, and thoroughly mixed. A known aliquot of each specimen was transferred to a pre-baked quartz tube and a known amount of carbon carrier added. Samples were then dried using vacuum centrifugation and submitted for graphitization; a known amount of each specimen was combusted and then reduced to graphite for measurement of total ^14C in the sample [22]. The resulting iron-graphite mixture was pressed into individual cathodes and submitted for AMS measurement on a National Electrostatics 5.2.1.Corporation (NEC) 1.5SDH Compact AMS System (Middleton, WI) running data acquisition software developed by NEC. Total carbon measurements were performed on a Shimadzu V-Series Total 5.2.2.Organic Carbon Analyzer, which uses oxidative combustion combined with non-dispersive infrared detection for the determination of total carbon concentrations. […]
# CYP1A2 = tested on: CYP1A2; parameters: method as in earlier work; conditions: 10 μM, exceeding clinical concentrations; cited from earlier work
# [4] = parameters: method as in PMID 28800141; conditions: cited from earlier work
# [5] = PK of ixazomib in plasma and urine (LC/MS/MS) after a single [14C]-ixazomib oral solution dose, phase I human ADME study Part A; assay type: in vivo; conditions: N = 5
# Description: as §1, §2, §3
# Plasma and urine concentrations of ixazomib were measured using a validated liquid chromatography/tandem mass spectrometry (LC/MS/MS) assay with a quantitation range of 0.5–500 ng/mL [16].
# The plasma PK of ixazomib was characterized over the first 14 days post dose, while the urine PK and excretion of ixazomib was assessed over the first 7 days post dose. TRA in plasma, whole blood, urine, and feces was assessed over the 35-day post-dose period in Part A. Mass balance of radiolabeled ixazomib was characterized based on the sum of cumulative amounts excreted in feces and urine during the continuous collection interval up to 7 days post dose (day 8, 168 h), and the interpolated amounts excreted in feces and urine between the weekly intermittent collections up to 35 days post dose. For the intervals of time during which urine and feces were not collected, the interval recovery of TRA was estimated as the area under the excretion rate-time curve from the end of the preceding collection interval to the start of the subsequent collection interval. PK parameters were calculated by non-compartmental analysis methods (Phoenix WinNonlin version 6.2, Certara, Princeton, NJ, USA).
# CYP2C19 = tested on: CYP2C19; parameters: method as in earlier work; conditions: 10 μM, exceeding clinical concentrations; cited from earlier work
# CYP2C8 = tested on: CYP2C8; parameters: method as in earlier work; conditions: 10 μM, exceeding clinical concentrations; cited from earlier work
# [6] = cited from earlier work
# [7] = parameters: method as in PMID 28550039; conditions: 4 mg capsules, relapsed or refractory light-chain amyloidosis, cited from earlier work
# CYP2D6 = tested on: CYP2D6; parameters: method as in earlier work; conditions: 10 μM, exceeding clinical concentrations; cited from earlier work
# [8] = tested on: cytochrome P450 (CYP) and non-CYP proteins; parameters: method as in earlier work; conditions: clinically relevant ixazomib concentrations; cited from earlier work
# [9] = cited from earlier work; remark: listed apart in the source
# [10] = parameters: method as in PMID 28290121; conditions: population PK estimate; cited from earlier work
# CYP2B6 = tested on: CYP2B6; parameters: method as in earlier work; conditions: 10 μM, exceeding clinical concentrations; cited from earlier work
# advanced solid tumors = experiment: Disease status during the study (efficacy, not a formal endpoint); assay type: in vivo, human; conditions: for Time on study with long-term stable disease: single-agent ixazomib
# Description: as §2
# CYP3A4 = tested on: CYP3A4; parameters: method as in earlier work; conditions: 10 μM, exceeding clinical concentrations; cited from earlier work
# CYP2C9 = tested on: CYP2C9; parameters: method as in earlier work; conditions: 10 μM, exceeding clinical concentrations; cited from earlier work
# relapsed/refractory MM = tested on: relapsed/refractory MM; parameters: method as in PMID 27119237; conditions: cited from earlier work
# [11] = parameters: method as in PMID 25011071; conditions: patients with MM; cited from earlier work
structure (smiles),measurement,setting,value
CC(C)C[C@H](NC(=O)CNC(=O)c1cc(Cl)ccc1Cl)B(O)O [ixazomib],Bound to plasma proteins,[1],99%
same,Abdominal pain incidence,"[2]; human, in vivo",43%
same,Constipation incidence,"[2]; human, in vivo",29%
same,Decreased appetite incidence,"[2]; human, in vivo",43%
same,Diarrhea incidence,"[2]; human, in vivo",71%
same,Dry mouth incidence,"[2]; human, in vivo",14%
same,Headache incidence,"[2]; human, in vivo",43%
same,Nausea incidence,"[2]; human, in vivo",29%
same,Patients experiencing a grade 3 AE (influenza and platelet count decreased),"[2]; human, in vivo",two patients
same,Patients with a drug-related event,"[2]; human, in vivo",86%
same,Premature discontinuation or dose reduction due to an adverse event,"[2]; human, in vivo",No patients
same,"Serious adverse event (influenza, deemed unrelated to study drug)","[2]; human, in vivo",One patient
same,TEAEs affecting the gastrointestinal system,"[2]; human, in vivo",all patients experiencing an event
same,Vomiting incidence,"[2]; human, in vivo",29%
same,Deaths on study,[2]; safety population N = 7,no patients died while on study
same,"Cumulative TRA recovered in feces (days 1–35, %) of administered dose","[3]; Mean (SD), N = 5",21.8% and 21.8 (3.41) %
same,"Cumulative TRA recovered in urine (days 1–35, %) of administered dose","[3]; Mean (SD), N = 5",62.1% and 62.1 (21.2) %
same,Total recovery (%) of TRA in urine and feces,"[3]; Mean (SD), N = 5",83.9 (20.7) %
same,"Cumulative TRA recovered in feces (days 1–35, %) of administered dose",[3]; Patient 001,18.3%
same,"Cumulative TRA recovered in urine (days 1–35, %) of administered dose",[3]; Patient 001,40.8%
same,Total recovery (%) of TRA in urine and feces,[3]; Patient 001,59.1%
same,"Cumulative TRA recovered in feces (days 1–35, %) of administered dose",[3]; Patient 002,18.7%
same,"Cumulative TRA recovered in urine (days 1–35, %) of administered dose",[3]; Patient 002,96.0%
same,Total recovery (%) of TRA in urine and feces,[3]; Patient 002,115%
same,"Cumulative TRA recovered in feces (days 1–35, %) of administered dose",[3]; Patient 005,26.4%
same,"Cumulative TRA recovered in urine (days 1–35, %) of administered dose",[3]; Patient 005,58.5%
same,Total recovery (%) of TRA in urine and feces,[3]; Patient 005,84.9%
same,"Cumulative TRA recovered in feces (days 1–35, %) of administered dose",[3]; Patient 006,23.7%
same,"Cumulative TRA recovered in urine (days 1–35, %) of administered dose",[3]; Patient 006,49.3%
same,Total recovery (%) of TRA in urine and feces,[3]; Patient 006,73.0%
same,"Cumulative TRA recovered in feces (days 1–35, %) of administered dose",[3]; Patient 007,21.9%
same,"Cumulative TRA recovered in urine (days 1–35, %) of administered dose",[3]; Patient 007,65.7%
same,Total recovery (%) of TRA in urine and feces,[3]; Patient 007,87.6%
same,Daily increment in excretion of TRA,[3]; after day 28,< 1%
same,Mean cumulative excretion of TRA in urine and feces,[3]; by day 14 post dose,59.0%
same,Mean total recovery of TRA in urine and feces,[3]; day 28 (plateau of excretion rate),79.4%
same,"Orally administered dose absorbed into the systemic circulation, suggested by urinary recovery",[3]; inferred from urinary TRA recovery,at least 62%
same,Estimated relative contribution of 1A2 to metabolism,CYP1A2,26%
same,Reduction of plasma exposures (AUC) of ixazomib,[4]; co-administration of rifampin,74%
same,Effect of strong CYP3A inhibitors on ixazomib PK,[4]; ketoconazole and clarithromycin,no significant effect
same,AUC(0-t),"[5]; human, plasma, po, 4.1 mg, plasma, single 4.1 mg oral solution dose of [14C]-ixazomib, read-out: Geometric mean AUC0–168, ng*h/mL (%CV), ixazomib",847 ng·h/mL
same,AUC(0-t),"[5]; human, plasma, po, 4.1 mg, plasma, single 4.1 mg oral solution dose of [14C]-ixazomib, read-out: Geometric mean AUC0–312, ng*h/mL (%CV), ixazomib",1180 ng·h/mL
same,dose excreted,"[5]; human, urine, po, 4.1 mg, up to 168 h post dose, single 4.1 mg oral solution dose, read-out: Mean urinary recovery, % (SD): administered dose recovered in urine as unchanged drug",< 3.5%
same,Cmax,"[5]; human, plasma, single 4.1 mg oral solution dose of [14C]-ixazomib, read-out: Geometric mean Cmax, ng/mL (%CV), ixazomib",89.1 ng/mL
same,CL renal,"[5]; human, urine, single 4.1 mg oral solution dose of [14C]-ixazomib, read-out: Geometric mean CLR (renal clearance), L/h (%CV) (converted)",0.119 L/h
same,"Mean urinary recovery, % (SD): administered dose recovered in urine as unchanged drug","[5]; up to 168 h post dose, single 4.1 mg oral solution dose",3.23 (2.13) %
same,Estimated relative contribution of 2C19 to metabolism,CYP2C19,5%
same,Estimated relative contribution of 2C8 to metabolism,CYP2C8,6%
same,Higher total systemic exposure of ixazomib,[6]; moderate and severe hepatic impairment,20%
same,Effect of mild hepatic impairment (total bilirubin ≤1.5 x ULN) on ixazomib PK,[6]; population PK analyses,no clinically meaningful effect
same,Effect of mild renal impairment (CrCl ≥30 mL/min) on ixazomib PK,[6]; population PK analyses,no clinically meaningful effect
same,Higher total systemic exposure of ixazomib compared with normal renal function,[6]; severe renal impairment and end-stage renal disease,39%
same,Plasma exposures versus patients with normal organ function,"[6]; severe renal impairment, end-stage renal disease requiring dialysis, moderate or severe hepatic impairment, dedicated phase I studies",increased
same,Whole blood to plasma AUC0–168 ratio for ixazomib alone,[7]; day 1,12.7
same,Whole blood to plasma AUC0–168 ratio for ixazomib alone,[7]; day 15,9.86
same,Estimated relative contribution of 2D6 to metabolism,CYP2D6,5%
same,Metabolic pathways in vitro,[8],metabolized by multiple cytochrome P450 (CYP) and non-CYP proteins with CYP450 enzymes playing only a minor role
same,Median time to first maximum observed concentration (Tmax),[9]; after oral administration,approximately 1 h
same,Effect of a high-fat meal on ixazomib absorption,[9],decreases both the rate and extent of ixazomib absorption
same,Geometric mean t1/2,[9],228 h
same,Absolute oral bioavailability,[10],58%
same,Steady-state volume of distribution,[10],543 L
same,Systemic clearance,[10],1.86 L/h
same,Terminal disposition phase half-life (t1/2),[10],228 h
same,Estimated relative contribution of 2B6 to metabolism,CYP2B6,16%
same,Patients who developed progressive disease during the study period,advanced solid tumors; 7 patients enrolled,5 patients
same,Time on study with long-term stable disease,advanced solid tumors; patient with cholangiocarcinoma,162 days
same,Time on study with long-term stable disease,advanced solid tumors; patient with ovarian cancer,427 days
same,Estimated relative contribution of 3A4 to metabolism,CYP3A4,42%
same,Estimated relative contribution of 2C9 to metabolism,CYP2C9,< 1%
same,Median progression-free survival,"relapsed/refractory MM; ixazomib (4 mg starting dose) added to lenalidomide and dexamethasone, RRMM patients, versus 14.7 months with placebo",20.6 months
same,Progression-free survival hazard ratio,"relapsed/refractory MM; ixazomib plus lenalidomide and dexamethasone versus placebo plus lenalidomide and dexamethasone, p = 0.012",0.74
CC(C)C[C@H](NC(=O)[C@H](Cc1ccccc1)NC(=O)c1cnccn1)B(O)O [bortezomib],Concentrations in whole blood higher than those observed in plasma,[11],3 fold

# From publication PMC5948259, “A phase I study to assess the mass balance, excretion, and pharmacokinetics of [^14C]-ixazomib, an oral proteasome inhibitor, in patients with advanced solid tumors” (Investigational New Drugs, 2017)
